Assay results from patent US10660877B2 (BRISTOL-MYERS SQUIBB COMPANY, priority 2016, dated 2020).

How the values were obtained:
[1] = molecular target: human TLR7 (Homo sapiens (Human), UniProt Q9NYK1); assay: TLR7 inhibition reporter assay (HEK-Blue cells, SEAP reporter, gardiquimod stimulation); type: cell-based; settings: HEK-Blue cells overexpressing human TLR7, gardiquimod 7.5 μM
[2] = molecular target: human TLR8 (Homo sapiens (Human), UniProt Q9NR97); assay: TLR8 inhibition reporter assay (HEK-Blue cells, SEAP reporter, R848 stimulation); settings: read-out: TLR8 IC50, HEK-Blue cells overexpressing human TLR8, R848 15.9 μM;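 further: compounds tested from 0.05 nM to 50 µM, 22 h at 37 °C, SEAP measured with HEK-Blue Detection, inhibition relative to agonist plus DMSO versus a known inhibitor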
Chain of human TLR8 (Q9NR97 27-1041): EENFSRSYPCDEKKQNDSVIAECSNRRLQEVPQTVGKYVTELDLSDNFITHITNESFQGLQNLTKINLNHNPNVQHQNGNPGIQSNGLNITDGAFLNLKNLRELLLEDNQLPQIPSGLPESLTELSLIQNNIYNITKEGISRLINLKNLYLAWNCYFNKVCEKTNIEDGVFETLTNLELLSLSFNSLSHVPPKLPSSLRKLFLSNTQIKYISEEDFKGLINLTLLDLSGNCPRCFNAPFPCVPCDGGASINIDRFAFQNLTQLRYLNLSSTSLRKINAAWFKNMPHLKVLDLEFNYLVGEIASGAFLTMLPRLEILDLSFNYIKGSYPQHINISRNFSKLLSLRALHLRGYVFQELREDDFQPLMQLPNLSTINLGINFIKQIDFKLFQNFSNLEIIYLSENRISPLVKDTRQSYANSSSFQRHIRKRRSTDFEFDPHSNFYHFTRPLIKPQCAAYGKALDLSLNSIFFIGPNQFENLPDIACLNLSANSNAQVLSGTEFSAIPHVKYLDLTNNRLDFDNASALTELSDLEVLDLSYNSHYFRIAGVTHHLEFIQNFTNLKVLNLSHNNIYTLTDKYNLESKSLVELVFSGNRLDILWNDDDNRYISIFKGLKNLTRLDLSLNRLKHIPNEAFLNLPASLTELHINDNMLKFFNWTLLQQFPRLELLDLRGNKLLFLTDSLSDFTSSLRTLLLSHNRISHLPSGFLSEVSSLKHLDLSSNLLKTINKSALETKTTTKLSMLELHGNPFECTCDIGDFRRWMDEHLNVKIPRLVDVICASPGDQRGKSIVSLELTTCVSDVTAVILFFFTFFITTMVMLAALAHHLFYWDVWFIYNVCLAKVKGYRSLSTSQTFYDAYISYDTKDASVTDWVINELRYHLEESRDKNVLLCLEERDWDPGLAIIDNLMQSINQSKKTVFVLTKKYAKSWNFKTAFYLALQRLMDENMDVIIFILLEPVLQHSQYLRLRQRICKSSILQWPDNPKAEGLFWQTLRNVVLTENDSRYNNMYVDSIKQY

[3] = molecular target: human TLR9 (Homo sapiens (Human), UniProt Q9NR96); assay: TLR9 inhibition reporter assay (HEK-Blue cells, SEAP reporter, ODN2006 stimulation); settings: read-out: TLR9 IC50, HEK-Blue cells overexpressing human TLR9, ODN2006 5 nM;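 further: compounds tested over 0.05 nM to 50 µM, 22 h incubation, inhibition taken as SEAP signal drop from agonist plus DMSO wells toward a known inhibitor control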
Chain of human TLR9 (Q9NR96 26-1032): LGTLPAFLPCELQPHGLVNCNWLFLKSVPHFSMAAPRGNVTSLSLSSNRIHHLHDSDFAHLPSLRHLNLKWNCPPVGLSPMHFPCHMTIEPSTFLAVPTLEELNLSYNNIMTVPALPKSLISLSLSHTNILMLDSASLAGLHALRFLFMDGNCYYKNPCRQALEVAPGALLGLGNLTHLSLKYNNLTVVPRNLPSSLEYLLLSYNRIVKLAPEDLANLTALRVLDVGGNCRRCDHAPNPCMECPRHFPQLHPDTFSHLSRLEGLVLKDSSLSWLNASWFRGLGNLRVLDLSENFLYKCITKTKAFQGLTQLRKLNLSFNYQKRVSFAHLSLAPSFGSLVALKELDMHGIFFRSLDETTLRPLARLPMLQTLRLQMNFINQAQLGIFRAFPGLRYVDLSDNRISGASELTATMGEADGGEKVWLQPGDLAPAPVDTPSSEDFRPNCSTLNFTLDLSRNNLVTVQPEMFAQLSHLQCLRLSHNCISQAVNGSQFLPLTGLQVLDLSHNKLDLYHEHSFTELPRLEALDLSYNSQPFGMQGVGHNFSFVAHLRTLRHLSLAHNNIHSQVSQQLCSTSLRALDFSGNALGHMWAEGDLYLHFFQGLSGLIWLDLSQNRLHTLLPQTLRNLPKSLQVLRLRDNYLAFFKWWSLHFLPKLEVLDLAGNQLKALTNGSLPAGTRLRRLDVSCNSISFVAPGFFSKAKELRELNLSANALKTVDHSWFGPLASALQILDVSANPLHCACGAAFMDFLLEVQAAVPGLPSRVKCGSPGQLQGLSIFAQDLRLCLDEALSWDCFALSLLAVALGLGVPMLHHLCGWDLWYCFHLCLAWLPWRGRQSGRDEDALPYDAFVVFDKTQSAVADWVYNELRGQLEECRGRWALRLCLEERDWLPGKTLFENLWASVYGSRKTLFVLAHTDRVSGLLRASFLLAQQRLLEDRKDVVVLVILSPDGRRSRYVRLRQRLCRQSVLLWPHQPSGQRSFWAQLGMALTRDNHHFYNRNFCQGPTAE

Chain of human TLR7 (Q9NYK1 27-1049): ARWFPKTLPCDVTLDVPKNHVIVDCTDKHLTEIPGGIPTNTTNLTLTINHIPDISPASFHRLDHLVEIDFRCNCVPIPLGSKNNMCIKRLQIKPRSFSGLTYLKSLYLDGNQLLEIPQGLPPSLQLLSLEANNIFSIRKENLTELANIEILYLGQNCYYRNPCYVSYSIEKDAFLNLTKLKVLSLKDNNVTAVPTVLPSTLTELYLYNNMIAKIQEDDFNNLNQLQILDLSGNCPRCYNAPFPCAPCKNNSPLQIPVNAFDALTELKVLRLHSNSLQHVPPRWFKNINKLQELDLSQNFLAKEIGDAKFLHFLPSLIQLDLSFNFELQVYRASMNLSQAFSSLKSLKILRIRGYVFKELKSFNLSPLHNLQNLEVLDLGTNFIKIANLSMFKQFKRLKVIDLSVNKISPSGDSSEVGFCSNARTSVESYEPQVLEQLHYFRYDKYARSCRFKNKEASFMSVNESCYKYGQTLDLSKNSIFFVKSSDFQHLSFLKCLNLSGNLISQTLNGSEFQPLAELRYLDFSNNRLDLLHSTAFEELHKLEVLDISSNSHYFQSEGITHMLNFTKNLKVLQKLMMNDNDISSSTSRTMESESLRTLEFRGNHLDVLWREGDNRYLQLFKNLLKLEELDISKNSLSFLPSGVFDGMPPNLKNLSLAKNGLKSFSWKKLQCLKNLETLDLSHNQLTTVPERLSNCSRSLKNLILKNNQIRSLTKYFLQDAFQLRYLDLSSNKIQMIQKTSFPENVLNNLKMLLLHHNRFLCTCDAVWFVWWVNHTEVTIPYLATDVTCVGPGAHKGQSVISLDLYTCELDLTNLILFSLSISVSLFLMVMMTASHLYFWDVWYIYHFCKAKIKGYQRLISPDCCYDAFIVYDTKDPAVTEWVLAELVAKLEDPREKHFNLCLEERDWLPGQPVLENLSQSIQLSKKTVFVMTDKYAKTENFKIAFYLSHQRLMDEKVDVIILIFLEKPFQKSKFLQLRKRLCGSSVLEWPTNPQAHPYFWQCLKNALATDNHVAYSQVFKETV

| SMILES | IC50 [1] [nM] | IC50 [2] [nM] | IC50 [3] [nM] |
| --- | --- | --- | --- |
| CCc1c(-c2ccnc(C)c2)[nH]c2ccc(C3CCN(C(C)C)CC3)cc12 [Example 672, 3-ethyl-5-(1-isopropylpiperidin-4-yl)-2-(2-methylpyridin-4-yl)-1H-indole] | 252 | 116 | 894 |
| CCc1c(-c2ccnc(C)c2)[nH]c2ccc(C3CCN(CCCN(C)C)CC3)cc12 [Example 673, 3-(4-(3-ethyl-2-(2-methylpyridin-4-yl)-1H-indol-5-yl)piperidin-1-yl)-N,N-dimethylpropan-1-amine] | 70.5 | 23.1 | 287 |
| CCc1c(-c2ccnc(C)c2)[nH]c2ccc(C3CCN(CC4CCN(C(C)C)CC4)CC3)cc12 [Example 675, 3-ethyl-5-(1-((1-isopropylpiperidin-4-yl)methyl)piperidin-4-yl)-2-(2-methylpyridin-4-yl)-1H-indole] | 44.7 | 11.9 | 42 |
| Cc1cc(-c2[nH]c3ccc(C4CCN(CCC(F)(F)F)CC4)cc3c2C(C)C)ccn1 [Example 676, 3-isopropyl-2-(2-methylpyridin-4-yl)-5-(1-(3,3,3-trifluoropropyl)piperidin-4-yl)-1H-indole] | 19 | 12.3 | 1930 |
| Cc1cc(-c2[nH]c3ccc(C4CCN(C(=O)CN(C)CCC#N)CC4)cc3c2C(C)C)c(F)cn1 [Example 679, 3-((2-(4-(2-(5-fluoro-2-methylpyridin-4-yl)-3-isopropyl-1H-indol-5-yl)piperidin-1-yl)-2-oxoethyl)(methyl)amino)propanenitrile] | 12.7 | 19.8 | 4380 |
| Cc1cc(-c2[nH]c3ccc(C4CCN(Cc5ccn[nH]5)CC4)cc3c2C(C)C)c(C)cn1 [Example 681, 5-(1-((1H-pyrazol-5-yl)methyl)piperidin-4-yl)-2-(2,5-dimethylpyridin-4-yl)-3-isopropyl-1H-indole] | 15.5 | 0.6 | 1530 |
| Cc1cc(-c2[nH]c3ccc(C4CCN(Cc5cc(C)on5)CC4)cc3c2C(C)C)c(C)cn1 [Example 685, 3-((4-(2-(2,5-dimethylpyridin-4-yl)-3-isopropyl-1H-indol-5-yl)piperidin-1-yl)methyl)-5-methylisoxazole] | 62.5 | 3.4 | 7510 |
| Cc1cc(-c2[nH]c3ccc(C4CCN(Cc5cc(C)on5)CC4)cc3c2C(C)C)c(F)cn1 [Example 686, 3-((4-(2-(5-fluoro-2-methylpyridin-4-yl)-3-isopropyl-1H-indol-5-yl)piperidin-1-yl)methyl)-5-methylisoxazole] | 35.2 | 4.1 | 9450 |
| Cc1cc(-c2[nH]c3ccc(C4CCN(Cc5cncs5)CC4)cc3c2C(C)C)c(C)cn1 [Example 687, 5-((4-(2-(2,5-dimethylpyridin-4-yl)-3-isopropyl-1H-indol-5-yl)piperidin-1-yl)methyl)thiazole] | 25.6 | 1.8 | 4920 |
| Cc1cc(-c2[nH]c3ccc(C4CCN(Cc5ccn(C)n5)CC4)cc3c2C(C)C)c(C)cn1 [Example 689, 2-(2,5-dimethylpyridin-4-yl)-3-isopropyl-5-(1-((1-methyl-1H-pyrazol-3-yl)methyl)piperidin-4-yl)-1H-indole] | 23.2 | 0.8 | 1440 |
| COc1cc(OC)nc(CN2CCC(c3ccc4[nH]c(-c5cc(C)ncc5C)c(C(C)C)c4c3)CC2)n1 [Example 693, 5-(1-((4,6-dimethoxypyrimidin-2-yl)methyl)piperidin-4-yl)-2-(2,5-dimethylpyridin-4-yl)-3-isopropyl-1H-indole] | 33.1 | 5.2 | 1680 |
| COc1cc(OC)nc(CN2CCC(c3ccc4[nH]c(-c5cc(C)ncc5F)c(C(C)C)c4c3)CC2)n1 [Example 694, 5-(1-((4,6-dimethoxypyrimidin-2-yl)methyl)piperidin-4-yl)-2-(5-fluoro-2-methylpyridin-4-yl)-3-isopropyl-1H-indole] | 20.7 | 7.8 | 3690 |

Compounds with a lower IC50 [1], results first:

| IC50 [1] [nM] | IC50 [2] [nM] | IC50 [3] [nM] | SMILES |
| --- | --- | --- | --- |
| 0.6 | 2.6 | 76 | CCN(CC)CCCN1CCC(c2ccc3[nH]c(-c4cc(C)nc(C)c4)c(C(C)C)c3c2)CC1 [Example 671, 3-(4-(2-(2,6-dimethylpyridin-4-yl)-3-isopropyl-1H-indol-5-yl)piperidin-1-yl)-N,N-diethylpropan-1-amine] |
| 0.8 | 2.8 | 156 | Cc1cc(-c2[nH]c3ccc(C4CCN(CCCN(C)C)CC4)cc3c2C(C)C)cc(C)n1 [Example 674, 3-(4-(2-(2,6-dimethylpyridin-4-yl)-3-isopropyl-1H-indol-5-yl)piperidin-1-yl)-N,N-dimethylpropan-1-amine] |
| 3.4 | 6.7 | 1690 | Cc1cc(-c2[nH]c3ccc(C4CCN(CCC(F)(F)F)CC4)cc3c2C(C)C)cc(C)n1 [Example 677, 2-(2,6-dimethylpyridin-4-yl)-3-isopropyl-5-(1-(3,3,3-trifluoropropyl)piperidin-4-yl)-1H-indole] |
| 12.3 | 30.6 | > 50000 | Cc1cc(-c2[nH]c3ccc(C4CCN(C(=O)CN(C)C5COC5)CC4)cc3c2C(C)C)c(F)cn1 [Example 678, 1-(4-(2-(5-fluoro-2-methylpyridin-4-yl)-3-isopropyl-1H-indol-5-yl)piperidin-1-yl)-2-(methyl(oxetan-3-yl)amino)ethan-1-one] |
| 2 | 4 | 2970 | Cc1cc(-c2[nH]c3ccc(C4CCN(C(=O)CN(C)CCO)CC4)cc3c2C(C)C)c(F)cn1 [Example 680, 1-(4-(2-(5-fluoro-2-methylpyridin-4-yl)-3-isopropyl-1H-indol-5-yl)piperidin-1-yl)-2-((2-hydroxyethyl)(methyl)amino)ethan-1-one] |
| 7.5 | 1.7 | 2720 | Cc1cc(-c2[nH]c3ccc(C4CCN(Cc5ccn[nH]5)CC4)cc3c2C(C)C)c(F)cn1 [Example 682, 5-(1-((1H-pyrazol-5-yl)methyl)piperidin-4-yl)-2-(5-fluoro-2-methylpyridin-4-yl)-3-isopropyl-1H-indole] |
| 12.1 | 2 | 6190 | Cc1cc(-c2[nH]c3ccc(C4CCN(Cc5cncs5)CC4)cc3c2C(C)C)c(F)cn1 [Example 688, 5-((4-(2-(5-fluoro-2-methylpyridin-4-yl)-3-isopropyl-1H-indol-5-yl)piperidin-1-yl)methyl)thiazole] |
| 11 | 1.9 | 3510 | Cc1cc(-c2[nH]c3ccc(C4CCN(Cc5c[nH]nn5)CC4)cc3c2C(C)C)c(C)cn1 [Example 690, 5-(1-((1H-1,2,3-triazol-4-yl)methyl)piperidin-4-yl)-2-(2,5-dimethylpyridin-4-yl)-3-isopropyl-1H-indole] |
| 7 | 2.6 | 2570 | Cc1cc(-c2[nH]c3ccc(C4CCN(Cc5c[nH]nn5)CC4)cc3c2C(C)C)c(F)cn1 [Example 691] |
| 10.3 | 0.9 | 1480 | Cc1cc(-c2[nH]c3ccc(C4CCN(Cc5ccn(C)n5)CC4)cc3c2C(C)C)c(F)cn1 [Example 692] |
